Assays:
60 human cell lines = test: Cytotoxicity of HHT in 60 human cell lines; settings: 1 μM (or lower) for 48 hours; cell lines other than the few that died obviously, of 60 human cell lines
SARS-CoV-2 = test: microbe, parasite or virus in culture; format: cell-based; settings: Severe acute respiratory syndrome coronavirus 2, Vero C1008, read-out: Inhibition rate (%)

COC(=O)C[C@](O)(CCCC(C)(C)O)C(=O)O[C@@H]1C(OC)=C[C@]23CCCN2CCc2cc4c(cc2[C@H]13)OCO4 [HHT, Homoharringtonine]
cell viability (60 human cell lines): about 100% | inhibition at 0.186 µM (SARS-CoV-2; drug concentration 0.186 μM): 31.7 ± 7.64% | inhibition at 0.375 µM (SARS-CoV-2; drug concentration 0.375 μM): 60 ± 8.66% | inhibition at 0.75 µM (SARS-CoV-2; drug concentration 0.75 μM): 86.7 ± 2.89% | inhibition at 1.5 µM (SARS-CoV-2; drug concentration 1.50 μM): 93.3 ± 2.89%

From patent publication US11850250B2, “Use of homoharringtonine in preparation of betacoronavirus replication inhibitor in human” (priority 2020, dated 2023)
